Columns and labels:
[1] = molecular target: T1, bovine pancreatic DNase I (Bos taurus, UniProt P00639); settings: cited from earlier work
[2] = molecular target: T1, bovine pancreatic DNase I; assay: DNase I assay; type: biochemical; settings: in the absence of Mn007
[3] = stated in the introduction without reference; cited from earlier work

T1 sequence (P00639 23-282): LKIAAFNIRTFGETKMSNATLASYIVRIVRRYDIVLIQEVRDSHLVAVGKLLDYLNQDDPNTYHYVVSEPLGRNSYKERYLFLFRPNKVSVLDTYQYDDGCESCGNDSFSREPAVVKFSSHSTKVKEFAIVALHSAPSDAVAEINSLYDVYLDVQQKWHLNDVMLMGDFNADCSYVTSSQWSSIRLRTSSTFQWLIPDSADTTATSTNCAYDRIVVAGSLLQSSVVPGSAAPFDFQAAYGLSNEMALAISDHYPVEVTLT

Compound | Inhibition of bovine pancreatic DNase I (reported) [1] | Effect on activity of DNase I [2] | Cytotoxicity [3]
O=C(O)CN(CCN(CC(=O)O)CC(=O)O)CC(=O)O [EDTA] | reported to inhibit | – | –
CC(O)COC[C@H]1O[C@@H]2O[C@H]3[C@H](O)[C@@H](O)[C@@H](O[C@H]4[C@H](O)[C@@H](O)[C@@H](O[C@H]5[C@H](O)[C@@H](O)[C@@H](O[C@H]6[C@H](O)[C@@H](O)[C@@H](O[C@H]7[C@H](O)[C@@H](O)[C@@H](O[C@H]8[C@H](O)[C@@H](O)[C@@H](O[C@H]1[C@H](O)[C@H]2O)O[C@@H]8COCC(C)O)O[C@@H]7COCC(C)O)O[C@@H]6COCC(C)O)O[C@@H]5COCC(C)O)O[C@@H]4COCC(C)O)O[C@@H]3COCC(C)O (stereo partly drawn) [HyβCD, 2-Hydroxypropyl-β-cyclodextrin] | – | did not affect the activity of DNase I | –
CN(C)c1ccc(C(=C2C=CC(=[N+](C)C)C=C2)c2ccc(N(C)C)cc2)cc1 [crystal violet] | reported to inhibit | – | show cytotoxicity
actin | reported to inhibit | – | –

— article PMC11200219 (JACS Au, 2024)
